From patent US6727278B1, “Pharmaceutically active agents that impede amyloid formation in vivo” (DMS Pharmaceutical Inc., priority 1986, dated 2004)

Legend:
human DMS = assay: In vivo assay: amyloid formation induced by intracerebral injection of human DMS with the compound, Congo Red histology; parameters: species or system Male Wistar rats; details: for Mean Lesion Area Composed of CBADs: percentage of lesion area, ** = significant decrease from untreated controls; for inhibition of amyloid formation in vivo: in-tissue levels in the range of 10^−5 to 10^−6 M
[1] = cited from earlier work
DMS (dense microspheres) = assay: Test 1: in vitro disruption of DMS on a glass slide, Congo Red red-green birefringence; details: for anti-amyloid activity in vitro: concentration of about 10^−2 M; for activity in the in vitro assay: 10^−2-to-10^−3 M concentration range
From the text: TEST 1 In vitro Disruption of DMS on a Glass Slide
Homogeneous DMS preparations are placed by droplet on a clean dry glass slide. The volume and number of DMS used is optional but is recommended to be at least several thousand to facilitate interpretation (see Example 1 below). Larger samples are more costly but are easier and more unequivocal to examine. The DMS are mechanically disrupted using a stainless steel spatula scraping and pressing the DMS against a glass slide in repetitive manual back and forth motions for one minute. The slide is allowed to air dry. A few drops of Congo Red stain are then added to the dried slide and gently passed over the dried disrupted DMS for 30 seconds and the stain is then drained off the slide onto tissue paper or filter paper. The slide is then examined in the light microscope, the latter fitted with crossed polarizing lenses to assess red-green congophilic birefringence.
The result is an unequivocal red-to-green (“apple green”) birefringence similar to the red-to-apple green birefringence found in the senile-plaque amyloid of Alzheimer patients, and in quantities proportional to the volume of DMS applied to the slide initially.
For test purposes, a corresponding DMS sample is contacted with a possible pharmacological agent, and the DMS disruption/staining procedure as described above is repeated. Many variations are possible, e.g., the active agent may be applied to the DMS in solution, before application to the slide, or to the DMS on the slide. In any event, if the agent prevents the red-green birefringence observed in the negative control slide (no agent present), then the active agent should be tested further for efficacy against cerebral amyloidosis.
Approximately 80,000 homogeneously extracted DMS were placed in a droplet from a Pasteur pipette onto a glass slide, and the droplet was air dried. The DMS adhered to the glass slide. Acetylcholine (20 mM) in physiological saline was added in a droplet, as a possible test compound, to DMS.
The DMS were mechanically disrupted, in the presence of the test compound, as described above and then were allowed to air dry. A control slide was treated exactly in the same manner, except that the test compound was not added. Congo Red stain was added, and the reaction products were examined, as previously described.

[2] = cited from earlier work; remark: listed apart in the source
[3] = 10^−5 − 10^−6M, CBADs = Congophilic Birefringent Amyloid Deposits

Question: With `Cc1noc(NS(=O)(=O)c2ccc(N)cc2)c1C` [Gantrisin, Sulfisoxazole] as the molecule, how does the “Mean Number of CBADs Per Animal” value (human DMS; 10^−2M) read?
Answer: 1

Question: And the “Mean Lesion Area Composed of CBADs” value (human DMS; 10^−2M)?
Answer: 0.1**

Question: And the “Mean Number of CBADs Per Animal” value (human DMS; [3])?
Answer: 108

Question: And the “Mean Lesion Area Composed of CBADs” value (human DMS; 10^−5 − 10^−6M)?
Answer: 8.4

Question: What about the absorption and excretion ([1]; route not stated) of the same molecule?
Answer: rapidly absorbed and excreted

Question: Which “anti-amyloid activity in vitro” value (DMS (dense microspheres)) does the source give for `O=C(O)c1cccnc1C(=O)O` [2,3-pyridine-dicarboxylic acid] here?
Answer: anti-amyloid activity

Question: For `CSc1ccc2c(c1)N(CCC1CCCCN1C)c1ccccc1S2` (stereo not shown) [thioridazine], which “activity in the in vitro assay” value (DMS (dense microspheres)) is on record?
Answer: inactive

Question: For `O=P(O)(O)O[C@H]1[C@H](OP(=O)(O)O)[C@@H](OP(=O)(O)O)[C@H](OP(=O)(O)O)[C@@H](OP(=O)(O)O)[C@H]1OP(=O)(O)O` [phytic acid], which “activity in the in vitro assay” value (DMS (dense microspheres)) is on record?
Answer: not to be active

Question: For `Nc1nc(O)nc2[nH]ncc12` [4-amino-6-hydroxypyrazolo [3,4-D] pyrimidine], which “anti-amyloid activity in vitro” value (DMS (dense microspheres)) is on record?
Answer: anti-amyloid activity

Question: Which “activity in the in vitro assay” value (DMS (dense microspheres)) does the source give for `CN(C)C(=O)Oc1cccc([N+](C)(C)C)c1` [neostigmine methylsulfate] here?
Answer: not to be active

Question: With `CN(C)C(=O)Oc1ccc[n+](C)c1` [pyridostigmine bromide] as the molecule, how does the “activity in the in vitro assay” value (DMS (dense microspheres)) read?
Answer: not to be active

Question: Which “anti-amyloid activity in vitro” value (DMS (dense microspheres)) does the source give for `Cc1cc(Cl)nc(N)n1` [2-amino-4-chloro-6-methyl pyrimidine] here?
Answer: anti-amyloid activity

Question: For `O=c1n(CCCN2CCN(c3cccc(Cl)c3)CC2)nc2ccccn12` [trazodone], which “activity in the in vitro assay” value (DMS (dense microspheres)) is on record?
Answer: inactive

Question: What does the source list for `CC[C@H]1OC(=O)[C@H](C)[C@@H](O[C@H]2C[C@@](C)(OC)[C@@H](O)[C@H](C)O2)[C@H](C)[C@@H](O[C@@H]2O[C@H](C)C[C@H](N(C)C)[C@H]2O)[C@](C)(O)C[C@@H](C)C(=O)[C@H](C)[C@@H](O)[C@]1(C)O` [erythromycin, Erythromycin]?
Answer: Mean Number of CBADs Per Animal (human DMS; [3]): 2; Mean Lesion Area Composed of CBADs (human DMS; 10^−5 − 10^−6M): 0.2**; inhibition of amyloid formation in vivo (human DMS): inhibit amyloid formation in vivo; half-life ([1]; in vivo): about sixteen; solubility in water [2]: water-soluble

Question: With `OCCN(CCO)c1nc(N2CCCCC2)c2nc(N(CCO)CCO)nc(N3CCCCC3)c2n1` [Persantine, 2,6-bis-(diethanolamino)-4,8-dipiperidinopyrimido-(5,4-d)-pyrimidine] as the molecule, how does the “Mean Number of CBADs Per Animal” value (human DMS; 10^−2M) read?
Answer: 4

Question: What about the “Mean Lesion Area Composed of CBADs” value (human DMS; 10^−2M) of the same molecule?
Answer: 0.2**

Question: What about the “Mean Number of CBADs Per Animal” value (human DMS; [3]) of the same molecule?
Answer: 146

Question: And the “Mean Lesion Area Composed of CBADs” value (human DMS; 10^−5 − 10^−6M)?
Answer: 14.6

Question: Which “activity in the in vitro assay” value (DMS (dense microspheres)) does the source give for `O=C1N(Cc2ccccc2)C2C[S+]3CCCC3C2N1Cc1ccccc1` (stereo not shown) [trimethophan camsylate] here?
Answer: inactive

Question: For `CCCC(CCC)C(=O)O` [valproic acid], which “activity in the in vitro assay” value (DMS (dense microspheres)) is on record?
Answer: inactive

Question: With `CCc1nc(N)nc(N)c1-c1ccc(Cl)cc1` [Daraprim, Pyrimethamine] as the molecule, how does the “Mean Number of CBADs Per Animal” value (human DMS; [3]) read?
Answer: 4

Question: And the “Mean Lesion Area Composed of CBADs” value (human DMS; 10^−5 − 10^−6M)?
Answer: 0.2**

Question: And the “inhibition of amyloid formation in vivo” value (human DMS)?
Answer: inhibit amyloid formation in vivo

Question: And the oral absorption [1]?
Answer: completely absorbed orally

Question: Which “anti-amyloid activity in vitro” value (DMS (dense microspheres)) does the source give for `Cl.Nc1c2c(nc3ccccc13)CCCC2` [THA, 9-amino-1,2,3,4-tetrahydroacridine hydrochloride] here?
Answer: anti-amyloid activity

Question: Which “activity in the in vitro assay” value (DMS (dense microspheres)) does the source give for `NC(=O)N1c2ccccc2C=Cc2ccccc21` [carbamazepine] here?
Answer: inactive

Question: What does the source list for `O=C([O-])c1cc(=O)c2c(OCC(O)COc3cccc4oc(C(=O)[O-])cc(=O)c34)cccc2o1.[Na+].[Na+]` [Intal, Cromolyn Sodium]?
Answer: Mean Number of CBADs Per Animal (human DMS; [3]): 2; Mean Lesion Area Composed of CBADs (human DMS; 10^−5 − 10^−6M): 0.4**; fraction entering the lungs ([1]; administered as a powder from an inhaler): about 10%; oral absorption [1]: poorly absorbed orally
